Experimental findings from PubChem BioAssay (NCI) are described below.

Test systems include SK-OV-3 ovarian; MCF7 breast; HOP-92 NSCLC; LOX IMVI melanoma; SK-MEL-5 melanoma; COLO 205 colon; 786-0 renal; HT29 colon.
Common to all, as to assay: inhibition of tumour cell growth, NCI panel, 48 h

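48-hour exposure; five concentrations; linearly interpolated endpoints. The concentration for full growth arrest is given as TGI.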

Consider `Clc1ccc(Cc2nc3ccc(CCN4CCN(c5ccccc5)CC4)cc3[nH]2)cc1`, for which the TGI with SK-OV-3 ovarian was found to be 38.4 µM; in the assay on MCF7 breast, 37.6 µM; with HOP-92 NSCLC it was 73.8 µM; with LOX IMVI melanoma it was 27 µM; in the assay with SK-MEL-5 melanoma it was 25.3 µM; in the assay with COLO 205 colon it was 15.3 µM. For the same molecule, the figures for the TGI in the assay with 786-0 renal and in the assay on HT29 colon were 23.1 µM and 22.5 µM, respectively.

On to `O=C1/C(=C\c2cccc(Oc3ccccc3)c2)S(=O)(=O)C(c2ccccc2)N1c1ccccc1Cl` (configuration not stated), for which the TGI is > 100 µM in the assay on SK-OV-3 ovarian; > 100 µM with MCF7 breast; 73.5 µM with HOP-92 NSCLC; > 100 µM in the assay on LOX IMVI melanoma; 32 µM in the assay with SK-MEL-5 melanoma; 33.5 µM with COLO 205 colon. Besides, the TGI in the assay with 786-0 renal is > 100 µM; with HT29 colon, 70.3 µM.

As to `Cc1ccc(N=Nc2c(O)ccc3cc(S(=O)(=O)O)ccc23)c(C)c1`, the TGI in the assay with SK-OV-3 ovarian, with MCF7 breast, with HOP-92 NSCLC, in the assay with SK-MEL-5 melanoma, in the assay with COLO 205 colon and in the assay with 786-0 renal was > 100 µM in each case. For the same molecule, in the assay with HT29 colon, the TGI was > 100 µM.

Turning to `CCOC(=O)/C(=C\c1ccc(N(C)C)cc1)S(=O)(=O)C(F)(F)C(F)(F)C(F)(F)C(F)(F)F`, the TGI in the assay with SK-OV-3 ovarian, with MCF7 breast, with HOP-92 NSCLC, in the assay with LOX IMVI melanoma, in the assay on SK-MEL-5 melanoma and with COLO 205 colon was > 100 µM each time. For the same molecule, the TGI in the assay on 786-0 renal and in the assay on HT29 colon was > 100 µM throughout.

As to `O=C(Nc1c[nH]c(=O)[nH]c1=O)C(Cl)Cl`, the TGI with SK-OV-3 ovarian, with MCF7 breast, in the assay on HOP-92 NSCLC, in the assay on LOX IMVI melanoma, in the assay with SK-MEL-5 melanoma and with COLO 205 colon was > 100 µM each time. The TGI in the assay on 786-0 renal and with HT29 colon was > 100 µM throughout.

`Cc1c(C(=O)N2CCN(c3ccc([N+](=O)[O-])cc3)CC2)[n+](=O)c2cc(Cl)c(Cl)cc2n1[O-]`: the TGI was 29.5 µM in the assay on SK-OV-3 ovarian; 33.2 µM in the assay on MCF7 breast; 34.4 µM in the assay on HOP-92 NSCLC; > 100 µM with LOX IMVI melanoma; 24.6 µM in the assay on SK-MEL-5 melanoma; > 100 µM in the assay on COLO 205 colon. The TGI in the assay with 786-0 renal came to 30.8 µM; in the assay on HT29 colon, 90.5 µM.

`O=C1Sc2ccc(Br)cc2C(=O)Sc2ccccc21`: the TGI with SK-OV-3 ovarian was > 62.9 µM; in the assay with MCF7 breast, 48.3 µM; in the assay on HOP-92 NSCLC, 33.6 µM; in the assay on LOX IMVI melanoma, 25.3 µM; in the assay with SK-MEL-5 melanoma it was 29.5 µM; with COLO 205 colon it was 28.4 µM. Moreover, the TGI was 25.6 µM in the assay on 786-0 renal and 35.3 µM in the assay with HT29 colon.

With `COc1ccc2[nH]c(Cl)c(/C=C3/C(=O)Nc4cc(C)c(OC)cc43)c2c1`, the TGI with SK-OV-3 ovarian amounted to 9.4 µM; in the assay on MCF7 breast, 14.4 µM; with HOP-92 NSCLC, 28.9 µM; in the assay on LOX IMVI melanoma, 17.5 µM; in the assay with SK-MEL-5 melanoma, 6.32 µM; with COLO 205 colon, 5.9 µM. Moreover, the TGI was determined as 19.8 µM with 786-0 renal and 15 µM in the assay on HT29 colon.

On to `Clc1nc(Cl)c(Cl)c(Cl)n1`, for which the TGI turned out to be 30.3 µM in the assay on SK-OV-3 ovarian; 37.9 µM in the assay with MCF7 breast; 56.4 µM in the assay on HOP-92 NSCLC; 27.3 µM with LOX IMVI melanoma; 32.2 µM with SK-MEL-5 melanoma; 24.1 µM with COLO 205 colon. For the same molecule, the figures for the TGI with 786-0 renal and in the assay with HT29 colon were 41.4 µM and 52.6 µM, respectively.

On to `Cc1ccnc2[nH]c(-c3cccc(Cl)c3)cc(=O)c12`, for which the TGI in the assay on SK-OV-3 ovarian is > 100 µM; in the assay with MCF7 breast, > 100 µM; in the assay on HOP-92 NSCLC, > 100 µM; with LOX IMVI melanoma, > 100 µM; in the assay with SK-MEL-5 melanoma, > 35.7 µM; in the assay on 786-0 renal it was > 100 µM. Further, the TGI in the assay on HT29 colon is > 100 µM.

With `Cc1ccc(S(=O)(=O)/N=C(\NN)Nc2ccc(Cl)cc2)cc1`, the TGI with SK-OV-3 ovarian, in the assay on MCF7 breast, in the assay with HOP-92 NSCLC, with LOX IMVI melanoma, in the assay on SK-MEL-5 melanoma and in the assay with COLO 205 colon was > 100 µM in each case. The TGI with 786-0 renal and in the assay with HT29 colon was > 100 µM throughout.

Turning to `CCCCc1c(C(=O)OC(C)(C)C)cc(C#Cc2cc(C(=O)OC(C)(C)C)c(CCCC)c(C(=O)OC(C)(C)C)c2)cc1C(=O)OC(C)(C)C`, the TGI with SK-OV-3 ovarian, in the assay on MCF7 breast, in the assay with HOP-92 NSCLC, in the assay with SK-MEL-5 melanoma, with COLO 205 colon and in the assay with 786-0 renal was > 100 µM throughout.

Consider `Cc1cc(CNC(=O)OCc2ccccc2)c(C)c2c1Oc1ccccc1O2`, for which the TGI in the assay with SK-OV-3 ovarian is 51.3 µM; with MCF7 breast it was > 100 µM; in the assay with HOP-92 NSCLC, 26.1 µM; in the assay on LOX IMVI melanoma, > 100 µM; in the assay on SK-MEL-5 melanoma it was > 100 µM; in the assay with COLO 205 colon, > 100 µM. Also, the TGI in the assay on 786-0 renal is 35.6 µM; in the assay with HT29 colon, > 68.8 µM.

For the molecule `COC(=O)C(C)(N=Cc1ccccc1)c1ccccc1` (configuration not stated), the TGI with SK-OV-3 ovarian, with MCF7 breast, in the assay on HOP-92 NSCLC, in the assay on LOX IMVI melanoma, with SK-MEL-5 melanoma and in the assay with COLO 205 colon was > 100 µM in each case. Further, the TGI in the assay with 786-0 renal and in the assay with HT29 colon was > 100 µM throughout.

Turning to `COc1cc2c(c(OC)c1OC)-c1ccc(SC)c(=O)cc1[C@@H](OC(C)=O)CC2`, the TGI in the assay on MCF7 breast, in the assay on HOP-92 NSCLC, in the assay on LOX IMVI melanoma, in the assay with COLO 205 colon and in the assay with 786-0 renal was > 100 µM in each case.

For the molecule `COC(=O)/C=C(\C)C(=O)N(C)c1ccccc1I`, the TGI with SK-OV-3 ovarian, with MCF7 breast, with HOP-92 NSCLC, with LOX IMVI melanoma, with SK-MEL-5 melanoma and in the assay with COLO 205 colon was > 100 µM throughout. The TGI with 786-0 renal was > 100 µM.

With `CC(C)SC(C)(NC(=O)C1C(C)(C)CCC1(C)C)C(=O)O` (configuration not stated), the TGI in the assay with SK-OV-3 ovarian, with MCF7 breast, with HOP-92 NSCLC, with LOX IMVI melanoma, in the assay on SK-MEL-5 melanoma and with COLO 205 colon was > 100 µM each time. For the same molecule, the TGI with 786-0 renal was > 100 µM.
